{"source": "patent US11524966B1", "about": "(Valo Early Discovery, Inc., priority 2017, dated 2022)", "data": [{"target": "T1, USP28 (USP28-5(1-1077)-TEV-6*His; LifeSensors) (Homo sapiens, UniProt Q96RU2)", "T1 construct": "construct USP28 (USP28-5(1-1077)-TEV-6*His; LifeSensors); TEV cleavage site (C); 6xHis (C); purchased LifeSensors", "T1 sequence (Q96RU2 1-1077)": "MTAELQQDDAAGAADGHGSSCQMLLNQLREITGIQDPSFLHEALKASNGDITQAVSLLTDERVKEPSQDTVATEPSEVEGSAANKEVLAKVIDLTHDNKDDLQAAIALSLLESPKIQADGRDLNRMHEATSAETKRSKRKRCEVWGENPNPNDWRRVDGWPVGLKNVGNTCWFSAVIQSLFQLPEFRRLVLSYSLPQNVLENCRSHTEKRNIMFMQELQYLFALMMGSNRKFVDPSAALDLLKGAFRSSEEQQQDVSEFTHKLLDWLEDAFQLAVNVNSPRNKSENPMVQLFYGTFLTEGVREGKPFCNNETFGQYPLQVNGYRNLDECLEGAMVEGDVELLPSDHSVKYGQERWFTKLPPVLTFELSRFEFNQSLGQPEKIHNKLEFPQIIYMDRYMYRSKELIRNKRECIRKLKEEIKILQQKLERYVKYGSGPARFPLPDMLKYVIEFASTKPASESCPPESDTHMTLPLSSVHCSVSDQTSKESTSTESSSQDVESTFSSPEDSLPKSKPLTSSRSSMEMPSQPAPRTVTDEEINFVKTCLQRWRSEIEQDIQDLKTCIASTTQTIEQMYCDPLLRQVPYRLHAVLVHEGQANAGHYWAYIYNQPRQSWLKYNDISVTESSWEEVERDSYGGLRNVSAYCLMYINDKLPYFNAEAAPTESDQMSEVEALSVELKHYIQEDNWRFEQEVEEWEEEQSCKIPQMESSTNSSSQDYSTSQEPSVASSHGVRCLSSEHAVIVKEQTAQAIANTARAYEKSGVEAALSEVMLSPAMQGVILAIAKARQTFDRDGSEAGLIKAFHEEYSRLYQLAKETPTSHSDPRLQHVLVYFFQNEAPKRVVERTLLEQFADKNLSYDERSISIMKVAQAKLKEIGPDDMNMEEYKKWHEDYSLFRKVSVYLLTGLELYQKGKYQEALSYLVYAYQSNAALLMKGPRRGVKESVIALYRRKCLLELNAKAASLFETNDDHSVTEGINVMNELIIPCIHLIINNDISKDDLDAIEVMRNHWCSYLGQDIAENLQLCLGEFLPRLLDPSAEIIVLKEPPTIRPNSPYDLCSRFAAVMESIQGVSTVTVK", "assay": "Ubiquitin-Rhodamine 110 Assay for USP28 Activity, Example A-1(b)", "assay_type": "biochemical", "details": "Ub-Rh110 assay, Example A-1(b)", "procedure": "(§1) Example A-1(b): Biochemical Assay: Ubiquitin-Rhodamine 110 Assay for USP28 Activity\n(§2) Each assay was performed in a final volume of 20 μL in assay buffer containing 20 mM Tris-HCl (pH 8.0, (1M Tris-HCl, pH 8.0 solution; Corning 46-031-CM)), 2 mM CaCl2) (1M Calcium Chloride solution; Sigma #21114) 2 mM BME (2-Mercaptoethanol; Sigma 63689-25ML-F), 0.01% Prionex ([…] filtered, Sigma #G-0411), and 0.01% Triton X-100. Stock compound solutions were stored at −20° C. as 10 mM in DMSO. Up to 1 month prior to the assay, 2 mM test compounds were pre-dispensed into assay plates (Black, low volume; Corning #3820) and frozen at −20° C. Prestamped assay plates were allowed to come to room temperature on the day of the assay. For the screen, 100 nL of 2 mM was pre-dispensed for a final screening concentration of 10 μM (DMSO(fc)=0.5%). […] Plates were incubated stacked for 90 minutes at room temperature before fluorescence was read on the Envision (Excitation at 485 nm and Emission at 535 nm; Perkin Elmer) or on the PheraSTAR (Excitation at 485 nm and Emission at 535 nm; BMG Labtech).\n(§3) For follow-up studies, each assay was performed in a final volume of 15 μL in assay buffer containing 20 mM Tris-HCl (pH 8.0, (1M Tris-HCl, pH 8.0 solution; Corning 46-031-CM)), 3 mM BME (2-Mercaptoethanol; Sigma 63689-25ML-F), 0.03% BGG (0.22 μM filtered, Sigma, G7516-25G), and 0.01% Triton X-100 (Sigma, T9284-10L). Nanoliter quantities of either an 8-point or 10-point, 3-fold serial dilution in DMSO was pre-dispensed into assay plates (Perkin Elmer, ProxiPlate-384 F Plus, #) for a final test concentration of either 25 μM to 11 nM or 25 μM to 1.3 nM, respectively. Enzyme USP28, construct USP28 (USP28-5(1-1077)-TEV-6*His; LifeSensors) concentration and incubation times were optimized for the maximal signal-to-background while maintaining initial velocity conditions at a fixed substrate concentration. The final concentration of the enzyme in the assay was 75 pM. Final substrate (Ub-Rh110; Ubiquitin-Rhodamine 110, R&D Systems #U-555) concentration was 25 nM with [Ub-Rh110]<<Km. 5 μL of 2× enzyme was added to assay plates (pre-stamped with compound) preincubated with USP28 for 30 minutes and then 5 μL of 2×Ub-Rh110 was added to assay plates. Plates were incubated stacked for 20 minutes at room temperature before 5 μL of stop solution was added (final concentration of 10 mM citric acid (Sigma, 251275-500G)). Fluorescence was read on the Envision (Excitation at 485 nm and Emission at 535 nm; Perkin Elmer) or on the PheraSTAR (Excitation at 485 nm and Emission at 535 nm; BMG Labtech).\n(§4) For assay formats Example A-1(a), A-1(b), and A-2, data were reported as percent inhibition compared with control wells based on the following equation: % inh=1−((FLU−AveLow)/(AveHigh−AveLow)) where FLU=measured Fluorescence, AveLow=average Fluorescence of no enzyme control (n=16), and AveHigh=average Fluorescence of DMSO control (n=16). IC50 values were determined by curve fitting of the standard 4 parameter logistic fitting algorithm included in the Activity Base software package: IDBS XE Designer Model 205. Data is fitted using the Levenburg Marquardt algorithm.", "values": [{"smiles": "Cc1ccc2c(N)c(C(=O)N[C@@H]3COc4cc(N5CCN[C@@H](C)[C@H]5C)ccc4C3)sc2n1", "note": "(single isomer, unassigned) [Example 1-8]", "USP28 A-1(b) IC50 range": "++++ (0.001-0.05 μM)"}]}, {"target": "T1, USP28 (USP28-5(1-1077)-TEV-6*His; LifeSensors)", "assay": "Ubiquitin-Rhodamine 110 Assay for USP28 Activity, Example A-1(b)", "assay_type": "biochemical", "details": "Ubiquitin-Rhodamine 110 assay, Example A-1(b)", "procedure": "as §1, §2, §3, §4", "values": [{"smiles": "Cc1ccc2c(N)c(C(=O)N[C@@H]3COc4cc(N5C[C@@H]6CNC[C@H]6C5)ccc4C3)sc2n1", "note": "[Example 42, 3-amino-((S)-7-((3aS,6aS)-hexahydropyrrolo[3,4-c]pyrrol-2(1H)-yl)chroman-3-yl)-6-methylthieno[2,3-b]pyridine-2-carboxamide]", "USP28 A-1(b) IC50 range": "++ (0.2-2 μM)"}, {"smiles": "Cc1ccc2c(N)c(C(=O)N[C@H]3CCc4cc(N5CCNCC5)ccc4C3)sc2n1", "note": "(single isomer, unassigned) [Example 11-21]", "USP28 A-1(b) IC50 range": "++ (0.2-2 μM)"}, {"smiles": "Cc1ccc2c(N)c(C(=O)N[C@H]3COc4cc(N5CCNC6(COC6)C5)ccc4C3)sc2n1", "note": "[Example 4-1, (R)—N-(7-(2-oxa-5,8-diazaspiro[3.5]nonan-8-yl)chroman-3-yl)-3-amino-6-methylthieno[2,3-b]pyridine-2-carboxamide]", "USP28 A-1(b) IC50 range": "++ (0.2-2 μM)"}, {"smiles": "Cc1cnc2c(N)c(C(=O)N[C@H]3CCc4cc(N5C[C@@H]6C[C@H]5CN6)ccc4C3)sc2n1", "note": "(single isomer, unassigned) [Example 11-29]", "USP28 A-1(b) IC50 range": "++ (0.2-2 μM)"}, {"smiles": "Cc1ccc2c(N)c(C(=O)N[C@H]3COc4cc(N5CCNCC5)ccc4[C@H]3C)sc2n1", "note": "(single isomer, unassigned) [Example 11-15]", "USP28 A-1(b) IC50 range": "+ (>2 μM)"}, {"smiles": "CN[C@H]1CCN(c2ccc3c(c2)CC[C@H](NC(=O)c2sc4nc(C)cnc4c2N)C3)C1", "note": "(single isomer, unassigned) [Example 11-25]", "USP28 A-1(b) IC50 range": "++ (0.2-2 μM)"}, {"smiles": "CN[C@@H]1CCN(c2ccc3c(c2)CC[C@@H](NC(=O)c2sc4nc(C)cnc4c2N)C3)C1", "note": "(single isomer, unassigned) [Example 11-28]", "USP28 A-1(b) IC50 range": "+ (>2 μM)"}, {"smiles": "Cc1ccc2c(N)c(C(=O)N[C@H]3CCc4cc(N5CC6CNCC(C5)O6)ccc4C3)sc2n1", "note": "(single isomer, unassigned) [Example 449]", "USP28 A-1(b) IC50 range": "++ (0.2-2 μM)"}, {"smiles": "Cc1cnc2c(N)c(C(=O)N[C@H]3CCc4cc(N5CCNCC5)ccc4C3)sc2n1", "note": "(single isomer, unassigned) [Example 11-19]", "USP28 A-1(b) IC50 range": "++ (0.2-2 μM)"}, {"smiles": "CN[C@H]1CCN(c2ccc3c(c2)CC[C@@H](NC(=O)c2sc4nc(C)cnc4c2N)C3)C1", "note": "(single isomer, unassigned) [Example 11-26]", "USP28 A-1(b) IC50 range": "+ (>2 μM)"}, {"smiles": "Cc1ccc2c(N)c(C(=O)N[C@H]3COc4cc(N5CCNCC5)ccc4[C@@H]3C)sc2n1", "note": "(single isomer, unassigned) [Example 11-16]", "USP28 A-1(b) IC50 range": "+ (>2 μM)"}, {"smiles": "O=C(N[C@H]1COc2cc(N3CCNCC3)ccc2C1)c1cnn2c(Br)cccc12", "note": "[Example 457, (R)-7-bromo-N-(7-(piperazin-1-yl)chroman-3-yl)pyrazolo[1,5-a]pyridine-3-carboxamide]", "USP28 A-1(b) IC50 range": "++ (0.2-2 μM)"}, {"smiles": "Cc1cnc2c(N)c(C(=O)N[C@@H]3CCc4cc(N5CCNCC5)ccc4C3)sc2n1", "note": "(single isomer, unassigned) [Example 11-20]", "USP28 A-1(b) IC50 range": "+ (>2 μM)"}]}, {"target": "T1, USP28 (USP28-5(1-1077)-TEV-6*His; LifeSensors)", "assay": "Ubiquitin-Rhodamine 110 Assay for USP28 Activity, Example A-1(b)", "assay_type": "biochemical", "details": "Ubiquitin-Rhodamine 110 assay, format Example A-1(b)", "procedure": "as §1, §2, §3, §4", "values": [{"smiles": "Cc1cnc2c(N)c(C(=O)N[C@@H]3CCc4cc(N5C[C@H]6C[C@@H]5CN6)ccc4C3)sc2n1", "note": "(single isomer, unassigned) [Example 11-32]", "USP28 A-1(b) IC50 range": "++ (0.2-2 μM)"}, {"smiles": "Cc1nc2sc(C(=O)N[C@@H]3CCc4cc(N5CCNCC5)ccc4C3)c(N)c2s1", "note": "(single isomer, unassigned) [Example 11-34]", "USP28 A-1(b) IC50 range": "++ (0.2-2 μM)"}, {"smiles": "Cc1ccc2c(N)c(C(=O)N[C@H]3CCc4c(C#N)c(N5CCNCC5)cc(F)c4C3)sc2n1", "note": "[Example 14-10, (S)-3-amino-N-(5-cyano-8-fluoro-6-(piperazin-1-yl)-1,2,3,4-tetrahydronaphthalen-2-yl)-6-methylthieno[2,3-b]pyridine-2-carboxamide]", "USP28 A-1(b) IC50 range": "+++ (0.05-0.2 μM)"}, {"smiles": "Cc1ccc2c(N)c(C(=O)N[C@@H]3CCc4cc(N5CC6CNCC(C5)O6)cc(F)c4C3)sc2n1", "note": "(single isomer, unassigned) [Example 11-40]", "USP28 A-1(b) IC50 range": "++++ (0.001-0.05 μM)"}, {"smiles": "Cc1ccc2c(N)c(C(=O)N[C@H]3CCc4cc(N5CC6CNCC(C5)O6)cc(F)c4C3)sc2n1", "note": "(single isomer, unassigned) [Example 11-39]", "USP28 A-1(b) IC50 range": "++ (0.2-2 μM)"}, {"smiles": "Cc1cnc2c(N)c(C(=O)N[C@H]3CCc4cc(N5CCNCC5)cc(F)c4C3)sc2n1", "note": "(single isomer, unassigned) [Example 11-38]", "USP28 A-1(b) IC50 range": "+++ (0.05-0.2 μM)"}, {"smiles": "Cc1cnc2c(N)c(C(=O)N[C@H]3CCc4cc(N5C[C@H]6C[C@@H]5CN6)ccc4C3)sc2n1", "note": "(single isomer, unassigned) [Example 11-31]", "USP28 A-1(b) IC50 range": "++ (0.2-2 μM)"}, {"smiles": "Cc1cnc2c(N)c(C(=O)N[C@@H]3CCc4c(C#N)c(N5CCNCC5)cc(F)c4C3)sc2n1", "note": "[Example 14-11, (R)-7-amino-N-(5-cyano-8-fluoro-6-(piperazin-1-yl)-1,2,3,4-tetrahydronaphthalen-2-yl)-3-methylthieno[2,3-b]pyrazine-6-carboxamide]", "USP28 A-1(b) IC50 range": "++ (0.2-2 μM)"}, {"smiles": "Cc1cnc2c(N)c(C(=O)N[C@@H]3CCc4cc(N5CCNCC5)cc(F)c4C3)sc2n1", "note": "(single isomer, unassigned) [Example 11-37]", "USP28 A-1(b) IC50 range": "+ (>2 μM)"}, {"smiles": "Cc1cnc2c(N)c(C(=O)N[C@@H]3CCc4cc(N5C[C@@H]6C[C@H]5CN6)ccc4C3)sc2n1", "note": "(single isomer, unassigned) [Example 11-30]", "USP28 A-1(b) IC50 range": "++ (0.2-2 μM)"}, {"smiles": "Cc1ccc2c(N)c(C(=O)N[C@@H]3CCc4c(C#N)c(N5CCNCC5)cc(F)c4C3)sc2n1", "note": "[Example 14-9, (R)-3-amino-N-(5-cyano-8-fluoro-6-(piperazin-1-yl)-1,2,3,4-tetrahydronaphthalen-2-yl)-6-methylthieno[2,3-b]pyridine-2-carboxamide]", "USP28 A-1(b) IC50 range": "+ (>2 μM)"}]}]}
